From ChEMBL document CHEMBL1201862, “PubChem BioAssay data set” (2004)
Active and inactive are the calls of the source.

Experiments:
[1] = target: T1, Short transient receptor potential channel 4 (Mus musculus, UniProt Q9QUQ5); assay: block of DAMGO-driven TRPC4 calcium entry – cell-based, HEK293 TRPC4/mu-opioid, Fluo-4 calcium, dose response (AID 434942); format: functional;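 further: potency of inhibitors blocking the TRPC4 calcium response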
T1 sequence (Q9QUQ5 whole entry): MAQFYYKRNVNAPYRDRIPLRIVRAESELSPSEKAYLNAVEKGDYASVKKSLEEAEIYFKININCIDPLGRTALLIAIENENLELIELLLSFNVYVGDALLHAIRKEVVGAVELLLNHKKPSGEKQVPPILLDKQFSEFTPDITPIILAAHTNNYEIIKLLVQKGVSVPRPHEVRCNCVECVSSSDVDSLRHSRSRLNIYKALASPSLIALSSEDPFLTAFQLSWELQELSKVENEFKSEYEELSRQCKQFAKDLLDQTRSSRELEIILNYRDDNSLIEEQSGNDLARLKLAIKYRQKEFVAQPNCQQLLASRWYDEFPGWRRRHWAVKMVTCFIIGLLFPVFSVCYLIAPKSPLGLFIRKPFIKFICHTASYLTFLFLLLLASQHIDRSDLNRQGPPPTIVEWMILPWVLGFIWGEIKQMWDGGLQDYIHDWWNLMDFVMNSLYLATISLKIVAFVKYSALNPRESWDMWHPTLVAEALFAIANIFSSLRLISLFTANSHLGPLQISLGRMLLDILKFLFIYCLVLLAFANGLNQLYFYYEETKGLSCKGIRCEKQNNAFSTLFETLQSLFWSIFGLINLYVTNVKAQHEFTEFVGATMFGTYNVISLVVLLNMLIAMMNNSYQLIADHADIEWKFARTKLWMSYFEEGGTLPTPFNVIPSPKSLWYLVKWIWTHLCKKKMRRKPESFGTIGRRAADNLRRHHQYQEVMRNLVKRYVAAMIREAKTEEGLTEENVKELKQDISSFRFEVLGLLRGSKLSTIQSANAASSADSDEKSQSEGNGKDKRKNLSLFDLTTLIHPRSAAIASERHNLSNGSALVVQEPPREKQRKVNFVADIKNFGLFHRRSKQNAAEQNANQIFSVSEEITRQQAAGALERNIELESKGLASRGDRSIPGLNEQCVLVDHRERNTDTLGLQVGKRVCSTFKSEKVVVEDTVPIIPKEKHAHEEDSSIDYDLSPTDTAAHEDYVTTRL

[2] = target: T1, Short transient receptor potential channel 4; assay: calcium entry via TRPC4 opening agents – cell-based, HEK293 TRPC4/mu-opioid, Fluo-4 calcium, dose response (AID 434937); format: functional
[3] = target: T2, Microphthalmia-associated transcription factor (Homo sapiens, UniProt O75030); assay: reducers of TRPM1 reporter luminescence, concentration series – cell-based, SK-MEL-5, cherry-picked, set 3, MITF inhibitor project, dose response (AID 493073); format: functional;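 further: SK-MEL-5 melanoma cells with luciferase driven by the MITF target TRPM1 promoter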
T2 sequence (O75030 whole entry): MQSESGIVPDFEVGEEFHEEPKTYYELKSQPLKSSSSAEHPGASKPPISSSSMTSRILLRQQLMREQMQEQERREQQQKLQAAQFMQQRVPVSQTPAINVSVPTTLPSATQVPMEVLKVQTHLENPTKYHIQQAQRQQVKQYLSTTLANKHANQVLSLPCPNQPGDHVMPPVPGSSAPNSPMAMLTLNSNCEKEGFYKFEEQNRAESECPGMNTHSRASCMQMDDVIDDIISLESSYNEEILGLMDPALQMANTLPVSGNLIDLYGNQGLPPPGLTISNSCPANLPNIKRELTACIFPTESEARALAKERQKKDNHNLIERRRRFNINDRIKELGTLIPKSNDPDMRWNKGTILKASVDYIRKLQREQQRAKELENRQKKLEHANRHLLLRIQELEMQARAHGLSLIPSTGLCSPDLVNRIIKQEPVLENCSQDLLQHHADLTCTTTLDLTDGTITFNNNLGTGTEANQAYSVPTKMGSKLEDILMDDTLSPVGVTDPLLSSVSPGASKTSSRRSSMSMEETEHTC

Nonstructural protein 1 = Nonstructural protein 1 (Influenza A virus, UniProt Q194T2); format: functional, Influenza A virus (A/California/07/2009(H1N1))
BJ [4] = assay: BJ-TERT fibroblast viability loss – cell-based, RAS-independent, luminescence, dose response (AID 1933); format: functional; details: Homo sapiens
BJ [5] = assay: cells; format: functional, cell-based; details: Homo sapiens
BJ [6] = assay: BJ-TERT-LT-ST fibroblast viability loss – cell-based, RAS-independent, luminescence, dose response (AID 1935); format: functional; details: Homo sapiens;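 further: BJ fibroblasts immortalized with TERT plus LT and ST oncogenes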
[7] = DRD fibroblast viability loss – cell-based, non-viral oncogenic, luminescence, dose response (AID 1934); format: functional; details: Homo sapiens
[8] = HEK-293T viability loss after treatment – luminescence, T-cell screen hits, cytotoxicity control for TCR NF-kB inhibitor project, dose response (AID 489026); format: functional, cell-based;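 further: cells exposed to compound about 14 hours before the viability readout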
Fatty acid synthase [9] = target: T3, Fatty acid synthase (Homo sapiens, UniProt P49327); assay: inhibition of human FAS-TE enzyme activity – biochemical, endpoint fluorescence intensity, uHTS hits, dose response (AID 624327); format: functional;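 further: fluorescence from hydrolysis of an O-methyl fluorescein acyl ester substrate by the enzyme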
Fatty acid synthase [10] = target: T3, Fatty acid synthase; assay: inhibition of human FAS-TE enzyme activity – biochemical, kinetic fluorescence intensity, dose response (AID 624326); format: functional;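 further: rate of fluorescence rise from hydrolysis of a fluorogenic O-methyl fluorescein ester substrate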
[11] = target: Heat shock protein HSP 90-alpha (Homo sapiens, UniProt P07900); format: functional, organism-based
Vero = assay: viability of Vero cells under compound – cytotoxicity control for flavivirus capping enzyme inhibitors (AID 588742); format: functional; details: Chlorocebus sabaeus
Genome polyprotein = Genome polyprotein (dengue virus type 2, UniProt P29990); assay: flavivirus cap methylation enzyme inhibition – biochemical, confirmation dose response, primary screen (AID 588689); format: functional
INS1 = assay: INS-1E survival protection against cytokine death – cell-based, luminescence, retest, dose response (AID 449756); format: functional; details: Rattus norvegicus;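 further: cell death triggered by IL-1 beta plus TNF-alpha plus IFN-gamma mixture; protective hits raise ATP signal compared with cytokine alone wells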
[12] = target: Voltage-dependent T-type calcium channel subunit alpha-1H (Homo sapiens, UniProt O95180); format: functional;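 further: channel activity triggered by adding a high calcium stimulation buffer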
[13] = Luminescence Cell-Based Dose Retest to Confirm Inhibitors of Cancer Stem Cells. [Related pubchem assays (depositor defined):AID2717, AID2721]; format: functional, Homo sapiens; details: Homo sapiens
[14] = target: T4, Heat shock factor protein 1 (Mus musculus, UniProt P38532); assay: enhancement of HSF1-driven luciferase signal – cell-based, NIH3T3, luminescence, dose retest, confirmation (AID 435004); format: functional;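 further: stress induced by proteasome inhibitor MG132 added 30 min after compound; luciferase reporter driven by HSF1 response element in NIH3T3 cells; actives raise luminescence as potentiators of the MG132 stress response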
T4 sequence (P38532 whole entry): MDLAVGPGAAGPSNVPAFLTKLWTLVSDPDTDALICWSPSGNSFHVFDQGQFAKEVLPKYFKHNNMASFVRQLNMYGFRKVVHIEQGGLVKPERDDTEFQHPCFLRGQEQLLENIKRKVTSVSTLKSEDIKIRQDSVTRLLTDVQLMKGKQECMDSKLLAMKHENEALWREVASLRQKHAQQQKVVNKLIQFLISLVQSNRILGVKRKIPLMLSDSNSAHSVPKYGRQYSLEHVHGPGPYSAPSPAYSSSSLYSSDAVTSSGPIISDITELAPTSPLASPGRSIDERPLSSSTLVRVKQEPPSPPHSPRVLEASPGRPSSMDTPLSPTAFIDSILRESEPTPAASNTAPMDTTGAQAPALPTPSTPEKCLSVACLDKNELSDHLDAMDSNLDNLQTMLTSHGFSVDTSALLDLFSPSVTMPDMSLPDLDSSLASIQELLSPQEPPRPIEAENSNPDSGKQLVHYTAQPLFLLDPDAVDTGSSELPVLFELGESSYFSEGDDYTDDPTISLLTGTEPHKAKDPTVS

[15] = Trypanosoma cruzi growth suppression in host cells – NIH3T3 host cells, beta-gal luminescence, confirmation (AID 2044); format: functional, cell-based;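 further: intracellular parasites grown in NIH/3T3 mouse fibroblasts as host cells; luminescent beta-galactosidase reporter signal from transgenic T. cruzi replicating inside host cells; inhibitors lower the luminescence signal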
[16] = viability of PTEN-deleted HCT116 cells – cell-based, HCT116 PTEN knockout, dose response (AID 1047); format: functional;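 further: HCT116 colon tumor cells with PTEN knocked out; cells exposed to compound for 60 hours before readout; potency for loss of cell viability measured by luminescence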
[17] = NIH3T3 cell viability loss – ATP luminescence, mouse fibroblasts, counter-screen, dose response (AID 2010); format: functional, cell-based;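 further: cells exposed to compound for about 90 hours before reading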
[18] = viability of HCT116 lacking mutant beta-catenin – cell-based, human colon tumor, dose response (AID 1045); format: functional;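 further: HCT116 colon tumor cells with beta catenin knocked out; cells exposed to compound for 60 hours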
Cytochrome P450 2C19 = Cytochrome P450 2C19 (Homo sapiens, UniProt P33261); assay: Cytochrome panel assay with activity outcomes. Panel member name: p450-cyp2c19 Compounds with AC50 equal or less than 10 uM are considered active; format: functional; details: read-out: AC50
Cytochrome P450 2C9 = Cytochrome P450 2C9 (Homo sapiens, UniProt P11712)
[19] = target: T5, Calpain-2 catalytic subunit (Sus scrofa, UniProt P43367); assay: m-calpain protease blockers, concentration series – biochemical, fluorogenic peptide substrate, dose response (AID 1420); format: functional
T5 sequence (P43367 whole entry): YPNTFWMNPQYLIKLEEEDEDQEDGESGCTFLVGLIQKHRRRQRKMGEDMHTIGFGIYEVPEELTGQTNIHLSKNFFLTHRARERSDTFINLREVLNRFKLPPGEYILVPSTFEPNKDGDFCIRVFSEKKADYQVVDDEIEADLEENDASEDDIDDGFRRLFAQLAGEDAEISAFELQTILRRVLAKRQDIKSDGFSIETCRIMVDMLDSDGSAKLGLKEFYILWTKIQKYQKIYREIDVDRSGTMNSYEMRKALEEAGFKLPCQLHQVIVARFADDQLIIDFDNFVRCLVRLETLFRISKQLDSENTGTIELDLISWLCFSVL

T3 sequence (P49327 whole entry): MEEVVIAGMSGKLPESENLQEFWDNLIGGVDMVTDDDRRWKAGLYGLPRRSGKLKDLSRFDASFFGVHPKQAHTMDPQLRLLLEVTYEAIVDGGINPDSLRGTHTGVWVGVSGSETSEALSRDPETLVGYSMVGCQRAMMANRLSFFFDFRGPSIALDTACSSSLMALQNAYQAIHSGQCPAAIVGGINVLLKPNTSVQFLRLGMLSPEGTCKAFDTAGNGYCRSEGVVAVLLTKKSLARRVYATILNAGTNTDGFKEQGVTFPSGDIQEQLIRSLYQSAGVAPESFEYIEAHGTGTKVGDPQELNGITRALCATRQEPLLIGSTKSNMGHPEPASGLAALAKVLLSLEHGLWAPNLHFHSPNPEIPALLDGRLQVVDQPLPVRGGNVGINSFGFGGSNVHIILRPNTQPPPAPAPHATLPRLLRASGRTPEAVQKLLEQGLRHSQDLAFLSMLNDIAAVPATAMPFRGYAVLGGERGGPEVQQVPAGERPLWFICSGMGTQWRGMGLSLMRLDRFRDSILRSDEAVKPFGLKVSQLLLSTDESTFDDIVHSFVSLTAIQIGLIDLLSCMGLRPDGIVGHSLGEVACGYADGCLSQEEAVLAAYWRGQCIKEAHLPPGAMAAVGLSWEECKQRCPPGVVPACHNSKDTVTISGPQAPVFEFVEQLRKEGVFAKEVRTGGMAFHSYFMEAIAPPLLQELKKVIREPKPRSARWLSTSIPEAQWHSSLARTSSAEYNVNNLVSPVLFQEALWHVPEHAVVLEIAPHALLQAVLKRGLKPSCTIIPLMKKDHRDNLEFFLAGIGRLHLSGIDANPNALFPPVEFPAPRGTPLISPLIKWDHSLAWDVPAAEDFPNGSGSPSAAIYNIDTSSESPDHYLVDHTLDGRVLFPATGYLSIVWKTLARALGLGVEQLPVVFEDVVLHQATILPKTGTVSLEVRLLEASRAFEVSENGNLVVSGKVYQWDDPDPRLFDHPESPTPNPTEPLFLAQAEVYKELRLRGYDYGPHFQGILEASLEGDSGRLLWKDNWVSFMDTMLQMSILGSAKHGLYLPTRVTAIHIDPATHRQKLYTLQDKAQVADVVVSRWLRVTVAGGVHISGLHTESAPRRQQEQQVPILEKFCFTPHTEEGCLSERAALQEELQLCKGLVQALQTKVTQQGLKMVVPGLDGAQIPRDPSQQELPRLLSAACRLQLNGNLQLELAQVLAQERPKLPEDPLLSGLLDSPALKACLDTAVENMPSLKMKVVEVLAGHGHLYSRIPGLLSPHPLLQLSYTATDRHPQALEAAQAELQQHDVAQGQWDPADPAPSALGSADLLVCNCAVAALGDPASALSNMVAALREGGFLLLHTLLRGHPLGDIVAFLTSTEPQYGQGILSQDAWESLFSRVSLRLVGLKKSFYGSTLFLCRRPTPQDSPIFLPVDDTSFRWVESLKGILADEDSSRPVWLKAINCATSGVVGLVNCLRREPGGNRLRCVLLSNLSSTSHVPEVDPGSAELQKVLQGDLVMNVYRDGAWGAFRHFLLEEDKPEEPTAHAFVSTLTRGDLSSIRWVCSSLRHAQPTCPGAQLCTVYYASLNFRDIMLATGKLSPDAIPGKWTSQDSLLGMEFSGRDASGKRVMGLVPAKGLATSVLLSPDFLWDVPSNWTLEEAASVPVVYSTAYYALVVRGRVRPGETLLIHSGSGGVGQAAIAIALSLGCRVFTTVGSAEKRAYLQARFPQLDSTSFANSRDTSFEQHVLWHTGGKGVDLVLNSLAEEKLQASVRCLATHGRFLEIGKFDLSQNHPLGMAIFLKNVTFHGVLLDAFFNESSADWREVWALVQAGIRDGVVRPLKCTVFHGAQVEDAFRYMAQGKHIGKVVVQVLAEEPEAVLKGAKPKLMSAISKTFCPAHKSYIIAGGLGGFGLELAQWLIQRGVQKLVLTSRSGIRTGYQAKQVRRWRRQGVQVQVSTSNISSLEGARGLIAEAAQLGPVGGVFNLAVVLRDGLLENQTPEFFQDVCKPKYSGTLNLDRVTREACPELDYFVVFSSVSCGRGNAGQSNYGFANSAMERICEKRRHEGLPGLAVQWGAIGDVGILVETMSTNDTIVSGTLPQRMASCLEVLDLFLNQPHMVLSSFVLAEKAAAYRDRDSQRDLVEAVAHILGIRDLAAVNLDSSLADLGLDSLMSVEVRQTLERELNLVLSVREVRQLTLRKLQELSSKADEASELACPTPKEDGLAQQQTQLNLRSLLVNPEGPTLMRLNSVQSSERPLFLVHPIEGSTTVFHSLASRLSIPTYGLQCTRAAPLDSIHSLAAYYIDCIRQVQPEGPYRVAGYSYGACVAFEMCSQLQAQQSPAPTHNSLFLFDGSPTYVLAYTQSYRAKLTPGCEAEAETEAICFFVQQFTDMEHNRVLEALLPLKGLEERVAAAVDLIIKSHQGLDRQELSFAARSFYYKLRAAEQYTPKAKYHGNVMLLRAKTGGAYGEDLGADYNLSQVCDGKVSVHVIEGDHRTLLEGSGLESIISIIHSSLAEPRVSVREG
Nonstructural protein 1, sequence (Q194T2 whole entry): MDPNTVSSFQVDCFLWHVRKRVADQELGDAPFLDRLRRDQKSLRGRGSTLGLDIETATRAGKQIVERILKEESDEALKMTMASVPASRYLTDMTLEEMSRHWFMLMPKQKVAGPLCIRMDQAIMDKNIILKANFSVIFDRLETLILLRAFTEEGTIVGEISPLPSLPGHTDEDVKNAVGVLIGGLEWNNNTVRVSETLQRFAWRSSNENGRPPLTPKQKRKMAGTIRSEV
Voltage-dependent T-type calcium channel subunit alpha-1H, sequence (O95180 whole entry): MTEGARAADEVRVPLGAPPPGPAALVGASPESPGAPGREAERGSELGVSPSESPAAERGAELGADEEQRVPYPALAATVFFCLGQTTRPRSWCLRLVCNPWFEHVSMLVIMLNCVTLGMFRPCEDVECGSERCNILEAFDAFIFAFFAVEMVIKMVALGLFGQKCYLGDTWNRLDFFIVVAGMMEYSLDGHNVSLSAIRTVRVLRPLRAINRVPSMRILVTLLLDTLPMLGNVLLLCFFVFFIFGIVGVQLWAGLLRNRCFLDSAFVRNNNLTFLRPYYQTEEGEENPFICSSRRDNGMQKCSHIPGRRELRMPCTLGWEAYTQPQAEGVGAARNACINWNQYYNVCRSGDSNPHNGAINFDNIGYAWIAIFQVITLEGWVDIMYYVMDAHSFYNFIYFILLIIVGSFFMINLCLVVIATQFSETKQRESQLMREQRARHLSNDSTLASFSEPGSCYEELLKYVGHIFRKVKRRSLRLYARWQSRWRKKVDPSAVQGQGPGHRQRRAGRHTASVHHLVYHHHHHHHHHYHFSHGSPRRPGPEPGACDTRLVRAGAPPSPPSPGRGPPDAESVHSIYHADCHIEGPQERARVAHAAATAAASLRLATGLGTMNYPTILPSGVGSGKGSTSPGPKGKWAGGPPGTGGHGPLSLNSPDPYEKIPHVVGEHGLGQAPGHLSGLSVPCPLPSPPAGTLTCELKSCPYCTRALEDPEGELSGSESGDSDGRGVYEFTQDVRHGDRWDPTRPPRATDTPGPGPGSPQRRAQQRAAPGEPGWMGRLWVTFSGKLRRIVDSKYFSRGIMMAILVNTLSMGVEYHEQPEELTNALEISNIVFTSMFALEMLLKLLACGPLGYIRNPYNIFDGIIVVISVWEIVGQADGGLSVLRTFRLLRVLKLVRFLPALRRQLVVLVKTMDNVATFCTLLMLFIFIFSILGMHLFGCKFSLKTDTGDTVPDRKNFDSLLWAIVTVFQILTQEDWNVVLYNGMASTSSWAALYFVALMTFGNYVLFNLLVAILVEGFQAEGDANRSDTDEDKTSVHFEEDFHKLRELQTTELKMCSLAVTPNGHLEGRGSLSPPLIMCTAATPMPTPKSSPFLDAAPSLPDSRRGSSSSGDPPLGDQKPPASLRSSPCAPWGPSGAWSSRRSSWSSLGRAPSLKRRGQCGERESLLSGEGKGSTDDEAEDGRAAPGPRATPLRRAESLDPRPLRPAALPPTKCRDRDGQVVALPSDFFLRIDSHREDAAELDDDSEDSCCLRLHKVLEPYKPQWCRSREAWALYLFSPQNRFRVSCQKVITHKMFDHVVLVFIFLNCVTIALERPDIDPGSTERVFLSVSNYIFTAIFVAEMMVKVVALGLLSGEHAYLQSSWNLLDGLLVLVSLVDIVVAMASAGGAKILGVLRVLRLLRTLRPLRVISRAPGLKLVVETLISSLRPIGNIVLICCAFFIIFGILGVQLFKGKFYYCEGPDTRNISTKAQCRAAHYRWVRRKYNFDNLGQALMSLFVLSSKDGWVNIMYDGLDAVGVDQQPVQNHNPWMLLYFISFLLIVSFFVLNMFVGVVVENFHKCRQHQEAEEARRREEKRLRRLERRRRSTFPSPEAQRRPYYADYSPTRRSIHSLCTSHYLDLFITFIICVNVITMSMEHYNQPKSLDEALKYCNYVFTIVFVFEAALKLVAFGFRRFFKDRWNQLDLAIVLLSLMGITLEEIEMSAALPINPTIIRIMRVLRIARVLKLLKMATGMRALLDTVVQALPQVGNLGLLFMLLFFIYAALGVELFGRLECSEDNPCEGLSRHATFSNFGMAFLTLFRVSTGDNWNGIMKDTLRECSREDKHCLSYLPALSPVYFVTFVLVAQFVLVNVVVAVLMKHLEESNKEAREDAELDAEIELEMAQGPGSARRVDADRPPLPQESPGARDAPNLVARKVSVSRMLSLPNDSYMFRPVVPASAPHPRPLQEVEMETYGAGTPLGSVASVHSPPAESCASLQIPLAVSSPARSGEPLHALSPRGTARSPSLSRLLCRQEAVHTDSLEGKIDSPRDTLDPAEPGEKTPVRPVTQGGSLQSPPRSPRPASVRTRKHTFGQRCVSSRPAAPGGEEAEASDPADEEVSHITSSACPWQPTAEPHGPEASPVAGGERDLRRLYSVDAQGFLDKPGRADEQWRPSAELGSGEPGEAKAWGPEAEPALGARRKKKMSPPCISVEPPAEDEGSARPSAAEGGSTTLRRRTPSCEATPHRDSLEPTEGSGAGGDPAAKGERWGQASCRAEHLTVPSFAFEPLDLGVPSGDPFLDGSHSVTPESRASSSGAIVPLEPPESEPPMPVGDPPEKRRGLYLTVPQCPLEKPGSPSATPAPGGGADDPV

## O=c1c2c(-c3ccccc3)csc2ncn1/N=C/c1cccc([N+](=O)[O-])c1O
[1]
  EC50: 10.6 µM (active)
[2]
  EC50: 9.44 µM (active)

## CCCc1nc2oc3c(NCCN(C)C)ncnc3c2c2c1CCCC2
[1]
  EC50: 1.68 µM (active)

## O=C(Nc1ccc(OC(F)(F)F)cc1)c1n[nH]cc1[N+](=O)[O-]
[3]
  AC50: 0.601 µM (active)

## S=c1sscc1-c1ccccc1
Nonstructural protein 1
  IC50: 32.7 µM (active)

## COc1ccc(N2CCN(C(=O)c3cccc(Cn4cc(Cl)cn4)c3)CC2)cc1
Nonstructural protein 1
  IC50: > 100 µM (active)

## Cc1ccc(COC(=O)c2cc([N+](=O)[O-])ccc2N2CCOCC2)cc1
BJ [4]
  EC50: 0.223 µM (active)
BJ [5]
  EC50: 11 µM (inconclusive)
BJ [6]
  EC50: 0.127 µM (inconclusive)
[7]
  EC50: 0.529 µM (inconclusive)
[8]
  IC50: > 80 µM (inactive)
Fatty acid synthase [9]
  IC50: 10.3 µM (active)
Fatty acid synthase [10]
  IC50: 9.01 µM (active)

## Cc1ccc(NS(=O)(=O)c2ccc(N3CCN(c4ccc(O)cc4)CC3)c([N+](=O)[O-])c2)c(C)c1
[11]
  AC50: 4.4 µM (active)

## O=C(CN1CC(=O)Oc2ccccc21)NCc1ccco1
Nonstructural protein 1
  IC50: 6.58 µM (active)

## CCCCNC(=Nc1ccc(Cl)cc1)c1cccnc1
[1]
  EC50: 7.5 µM (active)

## Cc1ccc(S(=O)(=O)N2[C@@H](c3ccc(C(C)(C)C)cc3)C(C(=O)O)=CC[C@H]2c2ccc(Cl)cc2)cc1
Vero
  CC50: > 40 µM (active)
Genome polyprotein
  IC50: 39.6 µM (active)
Fatty acid synthase [9]
  IC50: 10.9 µM (active)
Fatty acid synthase [10]
  IC50: 11.3 µM (active)

## C[C@@]12C(=O)Nc3ccc(F)cc3C(=O)N1[C@H]1c3ccccc3OC[C@@H]1[C@@H]2c1ccccc1
[11]
  AC50: 5.82 µM (active)

## Cc1cc(C(C)(C)C)cc(C)c1C[n+]1ccc2ccccc2c1
[8]
  IC50: > 80 µM (inactive)
INS1
  AC50: 1.45 µM (active)

## O=C(Nc1ccn(Cc2ccccc2F)n1)c1ccc(COc2ccc(Cl)cc2Cl)o1
[12]
  EC50: 10.3 µM (active)
[13]
  AC50: 2.03 µM (active)
[14]
  EC50: 20.8 µM (active)

## COc1ccc(C(C)(C)C)cc1NC(=O)Nc1ccc2c(c1)OCO2
[13]
  AC50: 6.11 µM (active)
[11]
  AC50: 7.91 µM (active)

## CCOC(=O)CC1=NN(c2ccccc2)C(=O)/C1=C\c1ccc(N(C)C)cc1
Nonstructural protein 1
  IC50: 15.7 µM (active)

## CCOC(=O)C1(CC2CC2)CCN(Cc2ccc(O)c(Cl)c2)CC1
[1]
  EC50: 0.376 µM (active)
[2]
  EC50: 0.841 µM (active)

## OC1(c2ccccc2)C[N+](c2ccccc2)=C2SCCN21 (centres undefined)
[1]
  EC50: 1.5 µM (active)
[2]
  EC50: 1.88 µM (active)

## Cc1ccc(-c2cc(C(=O)N3N=C(C(F)F)CC3(O)C(F)F)c3ccccc3n2)cc1C (centres undefined)
[15]
  EC50: 2.45 µM (active)
[16]
  EC50: 38.6 µM (active)
[17]
  EC50: > 30 µM (not active)
[18]
  EC50: 39.4 µM (active)
[13]
  AC50: 4.73 µM (active)
[14]
  EC50: 188 µM (active)
[11]
  AC50: 6.22 µM (active)

## CCN(C(=O)c1c(-c2ccccc2Cl)noc1C)C1CCCCC1
[1]
  EC50: 9.44 µM (active)

## Cc1cccn2c(=O)c(/C=N/O)c(N3CCCC3)nc12
[1]
  EC50: 1.88 µM (active)
Cytochrome P450 2C19
  AC50: 31.6 µM (inconclusive)
Cytochrome P450 2C9
  AC50: inconclusive

## COc1ccc(SN=C2C(C)=CC(=O)C=C2C)cc1
[11]
  AC50: 6.51 µM (active)

## CCOc1ccccc1NS(=O)(=O)c1ccc(-c2cnc(C3CC3)o2)cc1
[8]
  IC50: > 80 µM (inactive)

## Cc1ccc(C)c(OCCCC(=O)Nc2nccs2)c1
[19]
  IC50: > 50 µM (not active)
[12]
  EC50: 3.06 µM (active)

## COc1ccc2c(c1)[C@H]1[C@H](CO2)[C@H](c2ccccc2)[C@]2(C)C(=O)Nc3ccc(Cl)cc3C(=O)N12
[11]
  AC50: 3.14 µM (active)

## CC(C(=O)N(C)C1CCS(=O)(=O)C1)N1C(=O)/C(=C/c2ccco2)SC1=S (centres undefined)
Vero
  CC50: 35.4 µM (active)

## Cc1cccc(Nc2nc(N)c([N+](=O)[O-])c(N3CCCC(C)C3)n2)c1 (centres undefined)
[11]
  AC50: 4.6 µM (active)

## Cc1cc(C)cc(Nc2c([N+](=O)[O-])nn(-c3ccc(Cl)cc3)[n+]2[O-])c1
[15]
  EC50: 0.387 µM (active)
[17]
  EC50: > 60 µM (not active)
Nonstructural protein 1
  IC50: > 100 µM (active)
